Data taken from patent publication US20240352066A1, “ANTIMICROBIAL COMPOUNDS AND THE METHOD OF USE” (priority 2021, published 2024).
≈ marks a conversion by molar mass, not a printed value. Where a SMILES comes first, the peptide text is derived from it. [ ]: non-standard residue; d: D form. N(tridecyl)Gly = CCCCCCCCCCCCCNCC(=O)O; Gly(N-2-aminoethyl) = NCCNCC(=O)O; Gly(N-cHex) = O=C(O)CNC1CCCCC1; Nleu = CC(C)CNCC(=O)O; Nlys = NCCCCNCC(=O)O

Columns and labels:
[1] = system: human red blood cells (hRBC); experiment: Hemolytic activity against human red blood cells; format: cell-based; conditions: for hRBC HC10: Example 2, same donor sample of hRBCs
Description: Hemolytic activity was determined using single donor human red blood cells (hRBC). hRBCs were washed with PBS and centrifuged (1000 RPM; 10 minutes) three times, resuspended in PBS and aliquoted (100 μL) in 96 well plates. 2-fold serial dilutions of 10× peptoid final concentrations in PBS were prepared and added to wells in triplicate. PBS was used as a vehicle control and 1% Triton X-100 as a positive control. Plates were incubated for 1 hour (37° C.; 5% CO2) then centrifuged (1000 RPM; 10 minutes) and supernatant was diluted 1:20 into PBS in a new 96-well plate. Plates were read on a SpectraMax M5 plate reader (Abs. 405 nm). Percent hemolysis was determined by the following equation: […]
GraFit was used to determine concentrations at 50% hemolytic activity (HC50) and the Hill coefficient (H). Hemolytic activity at 10% (HC10) was then determined by the following equation: […]
The hemolytic activity of select peptoids was determined as done previously (Green et al. ACS medicinal chemistry letters 12 9, 1470-1477 (2021); Middleton et al. Bioorganic & medicinal chemistry letters 28 22, 3514-3519 (2018)). Selected peptoids were prepared in 2-fold serial dilutions in PBS at the desired concentrations. Human red blood cells (hRBCs, 9 mL) were centrifuged at 1000 rpm for 10 minutes, and the supernatant was removed and discarded. A 10 mL aliquot of PBS was used to resuspend the hRBCs which were centrifuged again at 1000 rpm for 10 minutes. This PBS wash was completed two more times for a total of three washes. A 9 mL aliquot of PBS was added to the hRBCs, and 100 μL of cell solution was added to individual wells of a 96-well plate. Peptoid solutions (11.1 μL) were added to the appropriate wells in triplicate. A vehicle control of PBS and positive control of 1% Triton X-100 were added to wells in triplicate.
The plate was incubated at 37° C. for 1 hour and centrifuged at 1000 rpm for 10 minutes. For each well, 5 μL of supernatant was transferred to 95 μL of PBS in a new 96-well plate. The absorbance at 405 nm was measured using a SpectraMax M5 Plate Reader, and the percent hemolysis was calculated as follows: […]

[2] = system: C. neoformans; format: cell-based, Cryptococcus neoformans; conditions: 72 h

SMILES | hRBC HC10 [1] [µg/mL] | C. neoformans MIC [2] [µg/mL] | HC10 hRBC ([1]; Example 1, 10% lysis, 1 hour) [µg/mL] | MIC C. neoformans [2] [µg/mL]
CCCCCCCCCCCCCNCC(=O)N(CC(=O)N(CCCCN)CC(=O)N(CCN)CC(=O)N(CC(N)=O)CC(C)C)CC(C)C [Compound 9] (H-[N(tridecyl)Gly][Nleu][Nlys][Gly(N-2-aminoethyl)][Nleu]-NH2) | 130 ± 45 | 3.13 | – | –
CCCCCCCCCCCCCNCC(=O)N(CC(=O)N(CCCCN)CC(=O)N(CCN)CC(=O)N(CC(N)=O)C1CCCCC1)C1CCCCC1 [RMG8-8, Ntri-Ncha-Nlys-Nae-Ncha] (H-[N(tridecyl)Gly][Gly(N-cHex)][Nlys][Gly(N-2-aminoethyl)][Gly(N-cHex)]-NH2) | 75 ± 31 | – | 77 | 1.6 (≈ 2.1 µM)
